Laboratory results taken from US10358425B1, “Dihydropyrimidones and pharmaceutical compositions thereof” (King Abdulaziz University, priority 2018, dated 2019).

Work on O=C1NC(O)=C(C(=O)c2ccccc2)C(c2ccccc2)N1 (stereo not shown) [Compound 7, 5-benzoyl-6-hydroxy-4-phenyl-3,4-dihydropyrimidin-2(1H)-one] yielded a melting point of 267 °C.
